{
  "source": "paper PMC6036132",
  "about": "“In Silico Workflow for the Discovery of Natural Products Activating the G Protein-Coupled Bile Acid Receptor 1” (Frontiers in Chemistry, 2018)",
  "biological_target": "T1, G protein-coupled bile acid receptor 1 (GPBAR1) (Homo sapiens, UniProt Q8TDU6)",
  "T1 construct": "full-length GPBAR1 expression plasmid (Origene), transiently transfected in HEK 293T cells with CRE-Luc and EGFP plasmids",
  "T1 sequence (Q8TDU6 1-330)": "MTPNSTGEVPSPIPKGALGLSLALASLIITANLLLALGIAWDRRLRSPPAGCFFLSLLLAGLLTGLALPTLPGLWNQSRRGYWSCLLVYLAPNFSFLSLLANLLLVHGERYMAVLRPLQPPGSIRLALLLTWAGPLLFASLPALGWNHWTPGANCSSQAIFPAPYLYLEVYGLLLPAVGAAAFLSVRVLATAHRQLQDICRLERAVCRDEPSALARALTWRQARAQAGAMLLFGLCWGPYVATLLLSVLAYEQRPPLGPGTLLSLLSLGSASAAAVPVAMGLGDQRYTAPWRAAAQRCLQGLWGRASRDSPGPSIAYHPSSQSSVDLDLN",
  "assay": "CRE-luciferase reporter assay in transfected HEK […] cells, EGFP-normalised",
  "assay_type": "cell-based",
  "details": "agonist; 18 h; relative to 10 μM LCA = 100%",
  "data": [
    {"compound": "C[C@H](CCC(=O)O)[C@H]1CC[C@H]2[C@@H]3[C@H](O)C[C@@H]4C[C@H](O)CC[C@]4(C)[C@H]3CC[C@]12C", "note": "[compound 3, chenodeoxycholic acid]", "values": [
      {"measurement": "Activity (at 5 μM)", "value": "66.69 ± 8.72", "unit": "%"}
    ]}
  ]
}
